Measured values reported in ChEMBL document CHEMBL1126329, “Azasugar and glycal inhibitors of -L-fucosidase” (Bioorg Med Chem Lett, 1992).

The compounds below were run against T1, Tissue alpha-L-fucosidase (Homo sapiens, UniProt P04066) (assay: Inhibition constant against Alpha-Fucosidase).
T1 sequence (P04066 whole entry): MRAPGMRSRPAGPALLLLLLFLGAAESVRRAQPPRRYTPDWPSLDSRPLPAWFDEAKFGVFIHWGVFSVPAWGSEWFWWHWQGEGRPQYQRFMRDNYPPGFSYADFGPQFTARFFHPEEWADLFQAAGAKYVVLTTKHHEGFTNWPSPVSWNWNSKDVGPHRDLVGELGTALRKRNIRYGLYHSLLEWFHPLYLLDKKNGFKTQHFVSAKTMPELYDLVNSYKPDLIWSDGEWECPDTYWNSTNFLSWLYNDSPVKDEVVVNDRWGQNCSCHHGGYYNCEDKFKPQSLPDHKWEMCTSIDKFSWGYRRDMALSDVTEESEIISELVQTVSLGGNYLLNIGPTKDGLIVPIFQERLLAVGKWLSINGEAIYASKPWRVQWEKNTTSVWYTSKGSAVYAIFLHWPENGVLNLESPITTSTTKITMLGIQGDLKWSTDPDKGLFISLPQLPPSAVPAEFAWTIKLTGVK

Point of comparison: `CN1CC(O)C(O)C(O)C1CO` (configuration not stated), Ki 5.3 mM. Against it:
- C[C@@H]1OC=C[C@@H](O)[C@@H]1O — 110-fold lower, 0.05 mM
- OC1C=COC(c2ccccc2)C1 (configuration not stated) — higher, > 100 mM
- CC(=O)C1C(O)C=COC1c1ccccc1 (configuration not stated) — higher, > 100 mM
- C[C@@H]1N[C@@H](CO)[C@H](O)[C@@H]1O — 1300-fold lower, 0.004 mM
- CC1=COC(c2ccccc2)C(C)C1O (stereo in doubt; 21) — higher, > 100 mM
- OC1C=COC(c2ccccc2)C1OCc1ccccc1 (configuration not stated) — higher, > 100 mM
- CC1=COC(c2ccccc2)C(C)C1O (stereo in doubt; 26) — higher, > 100 mM
- OCC1NC(CO)C(O)C1O (configuration not stated) — 5.8-fold lower, 0.91 mM
- CC(=O)C1C(O)C=COC1C (configuration not stated) — 59-fold lower, 0.09 mM

These compounds were tested against T1, Tissue alpha-L-fucosidase (assay: Inhibition constant against Alpha-Fucosidase; Uncompetitive inhibition).

Point of comparison: `OC1C=COC(c2ccccc2)C1O` (stereo in doubt; 25), Ki 22 mM. Against it:
- C[C@H]1OC=C[C@@H](O)[C@H]1O (stereo in doubt; 19) — 1.6-fold higher, 35 mM
- OC1C=COC(c2ccccc2)C1O (stereo in doubt; 23) — 3.8-fold higher, 83 mM
- C[C@H]1OC=C[C@@H](O)[C@H]1O (stereo in doubt; 24) — within 1.5-fold, 23 mM
- CC(=O)C1C(O)C=COC1C (configuration not stated) — within 1.5-fold, 26 mM

What follows are compounds tested against T2, Tissue alpha-L-fucosidase (Homo sapiens) (UniProt P04066).
T2 sequence (whole entry): T1 sequence (P04066 whole entry)
Description: Slope inhibition constant against Alpha-Fucosidase; Uncompetitive inhibition

Compound `Oc1ccccc1` has a Kis of 0.18 mM.

Target: T2, Tissue alpha-L-fucosidase (Homo sapiens)
Remark: another data set of the same source
Description: Intecept inhibition constant against Alpha-Fucosidase; Noncompetitive inhibition

`Oc1ccccc1` showed a Kii of 112 mM.
